{"source": "patent US20220305178A1", "about": "“CANCER TREATMENT BY IN VITRO AMINO ACID DEPRIVATION” (YUANHENG BIOMEDICAL CO., LTD., priority 2021, published 2022)", "key": {"[1]": {"assay": "Modified peritoneal dialysis of peritoneal fluid (RPMI 1640 diluent) with Asparaginase in the dialysate (Example 3)", "type": "biochemical", "protocol": "(§1) RPMI 1640 Medium was ten times diluted to obtain 1 L of RPMI 1640 diluent with Dianeal PD-2 (Peritoneal Dialysis Solution) and to serve as a peritoneal fluid for the control group 2. 1 L and 2 L of the same RPMI 1640 diluent was prepared for the Experimental group 2 and Experimental group 3, respectively.\n(§2) The flow rate or circulation speed of the dialysate was 250 ml/min. Before the peritoneal fluid (RPMI 1640 diluent) entered the dialysis machine, RPMI 1640 diluent was also used to clean the circulation pipeline of the dialysis machine, to achieve the required equilibrium of the artificial kidney, and to get rid of all bubbles in the artificial kidney. Besides, the artificial kidneys of the control group 2 and the experimental group 2 were NV-15U with the effective membrane area of 1.5 m^2; and the artificial kidney of the experimental group 3 was NV-21U with the effective membrane area of 2.1 m^2.\n(§3) The dialysate is DIANEAL PD-2 Peritoneal Dialysis Solution with 1.5% Dextrose (Baxter). The target amino acid is Asparagine (Asn), and the concentration of Asparaginase in the dialysate is 1 K.U./ml in the Experimental groups 2 & 3. No Asparaginase was added in the control group 2.\n(§4) The dialysis temperature was set to be 37° C. The peritoneal fluid (RPMI 1640 diluent) was first pumped into slot A for temporary storage and then entered the artificial kidney. After peritoneal fluid (RPMI 1640 diluent) left the artificial kidney, peritoneal fluid (RPMI 1640 diluent) further entered slot B for temporary storage, and then left the dialysis machine, e.g. the peritoneal fluid (RPMI 1640 diluent) was pumped back to the peritoneal cavity of the patient. The concentrations of amino acids in the peritoneal fluid before and after dialysis were studied by using Amino Acid Analysis Systems (Waters UPLC® Amino Acid Analysis (AAA) Solution) and the result was shown in Table 3 to Table 5."}, "[2]": {"assay": "Modified peritoneal dialysis with artificial kidneys of different effective membrane areas (Example 4)", "type": "biochemical", "details": "for Arg (%) of the peritoneal fluid / Arg (μM) of the peritoneal fluid: non-target amino acid", "protocol": "as §1, §2, §3, §4\nExample 4 was carried out with the method the same as Example 3 except that the artificial kidneys with different effective membrane areas were adopted. The concentrations of amino acids in the peritoneal fluid before and after dialysis were studied and the result was shown in Table 6."}, "[3]": {"details": "dialyzer BG-1.6U (1.6 m^2), dialysis time 0 min"}, "[4]": {"details": "dialyzer BG-1.6U (1.6 m^2), dialysis time 3 min"}, "[5]": {"details": "dialyzer BG-1.6U (1.6 m^2), dialysis time 5 min"}, "[6]": {"details": "dialyzer BG-1.6U (1.6 m^2), dialysis time 10 min"}, "[7]": {"details": "dialyzer BG-1.6U (1.6 m^2), dialysis time 20 min"}, "[8]": {"details": "dialyzer BG-1.8U (1.8 m^2), dialysis time 0 min"}, "[9]": {"details": "dialyzer BG-1.8U (1.8 m^2), dialysis time 3 min"}, "[10]": {"details": "dialyzer BG-1.8U (1.8 m^2), dialysis time 5 min"}, "[11]": {"details": "dialyzer BG-1.8U (1.8 m^2), dialysis time 10 min"}, "[12]": {"details": "dialyzer BG-1.8U (1.8 m^2), dialysis time 20 min"}, "[13]": {"details": "dialyzer polyflux-140H (1.4 m^2), dialysis time 0 min"}, "[14]": {"details": "dialyzer polyflux-140H (1.4 m^2), dialysis time 3 min"}, "[15]": {"details": "dialyzer polyflux-140H (1.4 m^2), dialysis time 5 min"}, "[16]": {"details": "dialyzer polyflux-140H (1.4 m^2), dialysis time 10 min"}, "[17]": {"details": "dialyzer polyflux-140H (1.4 m^2), dialysis time 20 min"}}, "data": [{"substance": "Asparaginase", "values": [{"measurement": "concentration of Asn of the peritoneal fluid", "setting": "[1]; experimental group 2, Asparaginase 1 K.U./ml in dialysate, NV-15U 1.5 m^2, dialysis time 0 min", "result": 27.284, "unit": "µM"}, {"measurement": "concentration of Asn of the peritoneal fluid", "setting": "[1]; experimental group 2, Asparaginase 1 K.U./ml in dialysate, NV-15U 1.5 m^2, dialysis time 3 min", "result": 23.254, "unit": "µM"}, {"measurement": "concentration of Asn of the peritoneal fluid", "setting": "[1]; experimental group 2, Asparaginase 1 K.U./ml in dialysate, NV-15U 1.5 m^2, dialysis time 5 min", "result": 9.088, "unit": "µM"}, {"measurement": "concentration of Arg of the peritoneal fluid", "setting": "[1]; experimental group 2, Asparaginase 1 K.U./ml in dialysate, NV-15U 1.5 m^2, non-target amino acid, dialysis time 0 min", "result": 102.6, "unit": "µM"}, {"measurement": "concentration of Arg of the peritoneal fluid", "setting": "[1]; experimental group 2, Asparaginase 1 K.U./ml in dialysate, NV-15U 1.5 m^2, non-target amino acid, dialysis time 3 min", "result": 90.0, "unit": "µM"}, {"measurement": "concentration of Arg of the peritoneal fluid", "setting": "[1]; experimental group 2, Asparaginase 1 K.U./ml in dialysate, NV-15U 1.5 m^2, non-target amino acid, dialysis time 5 min", "result": 70.5, "unit": "µM"}, {"measurement": "dialysis time within which Arginine (Arg) is lower to 50% of the original concentration", "setting": "[1]; experimental group 2, NV-15U 1.5 m^2", "result": "≤ 10", "unit": "min"}, {"measurement": "concentration of Asparagine (Asn) relative to original", "setting": "[1]; experimental group 2, within 5 mins of dialysis", "result": "less than 50%"}, {"measurement": "concentration of Asn of the peritoneal fluid", "setting": "[1]; experimental group 3, Asparaginase 1 K.U./ml in dialysate, NV-21U 2.1 m^2, dialysis time 0 min", "result": 30.674, "unit": "µM"}, {"measurement": "concentration of Arg of the peritoneal fluid", "setting": "[1]; experimental group 3, Asparaginase 1 K.U./ml in dialysate, NV-21U 2.1 m^2, non-target amino acid, dialysis time 0 min", "result": 83.86, "unit": "µM"}, {"measurement": "concentration of Arg of the peritoneal fluid", "setting": "[1]; experimental group 3, Asparaginase 1 K.U./ml in dialysate, NV-21U 2.1 m^2, non-target amino acid, dialysis time 3 min", "result": 70.12, "unit": "µM"}, {"measurement": "concentration of Arg of the peritoneal fluid", "setting": "[1]; experimental group 3, Asparaginase 1 K.U./ml in dialysate, NV-21U 2.1 m^2, non-target amino acid, dialysis time 5 min", "result": 37.31, "unit": "µM"}, {"measurement": "concentration of Arg of the peritoneal fluid", "setting": "[1]; experimental group 3, Asparaginase 1 K.U./ml in dialysate, NV-21U 2.1 m^2, non-target amino acid, dialysis time 10 min", "result": 19.99, "unit": "µM"}, {"measurement": "dialysis time within which Arginine (Arg) is lower to 50% of the original concentration", "setting": "[1]; experimental group 3, NV-21U 2.1 m^2", "result": "≤ 5", "unit": "min"}, {"measurement": "dialysis time within which Asparagine (Asn) is undetectable", "setting": "[1]; experimental group 3, NV-21U 2.1 m^2, peritoneal fluid, LOD of Asparagine 5 μM", "result": "≤ 3", "unit": "min"}, {"measurement": "concentration of non-target amino acid maintained", "setting": "[2]; Example 4, artificial kidneys 1.4 to 1.8 m^2", "result": "about 50%"}, {"measurement": "Asn (%) of the peritoneal fluid", "setting": "[2]; [3]", "result": 100, "unit": "%"}, {"measurement": "Asn (μM) of the peritoneal fluid", "setting": "[2]; [3]", "result": 45.5, "unit": "µM"}, {"measurement": "Asn (%) of the peritoneal fluid", "setting": "[2]; [4]", "result": 73.90, "unit": "%"}, {"measurement": "Asn (μM) of the peritoneal fluid", "setting": "[2]; [4]", "result": 33.6, "unit": "µM"}, {"measurement": "Arg (%) of the peritoneal fluid", "setting": "[2]; [3]", "result": 100, "unit": "%"}, {"measurement": "Arg (μM) of the peritoneal fluid", "setting": "[2]; [3]", "result": 95.3, "unit": "µM"}, {"measurement": "Arg (%) of the peritoneal fluid", "setting": "[2]; [4]", "result": 86.3, "unit": "%"}, {"measurement": "Arg (μM) of the peritoneal fluid", "setting": "[2]; [4]", "result": 82.2, "unit": "µM"}, {"measurement": "Arg (%) of the peritoneal fluid", "setting": "[2]; [5]", "result": 74.8, "unit": "%"}, {"measurement": "Arg (μM) of the peritoneal fluid", "setting": "[2]; [5]", "result": 71.3, "unit": "µM"}, {"measurement": "Arg (%) of the peritoneal fluid", "setting": "[2]; [6]", "result": 65.8, "unit": "%"}, {"measurement": "Arg (μM) of the peritoneal fluid", "setting": "[2]; [6]", "result": 62.7, "unit": "µM"}, {"measurement": "Arg (%) of the peritoneal fluid", "setting": "[2]; [7]", "result": 49.7, "unit": "%"}, {"measurement": "Arg (μM) of the peritoneal fluid", "setting": "[2]; [7]", "result": 47.4, "unit": "µM"}, {"measurement": "Asn (%) of the peritoneal fluid", "setting": "[2]; [8]", "result": 100, "unit": "%"}, {"measurement": "Asn (μM) of the peritoneal fluid", "setting": "[2]; [8]", "result": 36.7, "unit": "µM"}, {"measurement": "Arg (%) of the peritoneal fluid", "setting": "[2]; [8]", "result": 100, "unit": "%"}, {"measurement": "Arg (μM) of the peritoneal fluid", "setting": "[2]; [8]", "result": 89.0, "unit": "µM"}, {"measurement": "Arg (%) of the peritoneal fluid", "setting": "[2]; [9]", "result": 75.1, "unit": "%"}, {"measurement": "Arg (μM) of the peritoneal fluid", "setting": "[2]; [9]", "result": 66.8, "unit": "µM"}, {"measurement": "Arg (%) of the peritoneal fluid", "setting": "[2]; [10]", "result": 76.5, "unit": "%"}, {"measurement": "Arg (μM) of the peritoneal fluid", "setting": "[2]; [10]", "result": 68.0, "unit": "µM"}, {"measurement": "Arg (%) of the peritoneal fluid", "setting": "[2]; [11]", "result": 61.5, "unit": "%"}, {"measurement": "Arg (μM) of the peritoneal fluid", "setting": "[2]; [11]", "result": 54.7, "unit": "µM"}, {"measurement": "Arg (%) of the peritoneal fluid", "setting": "[2]; [12]", "result": 61.2, "unit": "%"}, {"measurement": "Arg (μM) of the peritoneal fluid", "setting": "[2]; [12]", "result": 54.4, "unit": "µM"}, {"measurement": "Asn (%) of the peritoneal fluid", "setting": "[2]; [13]", "result": 100, "unit": "%"}, {"measurement": "Asn (μM) of the peritoneal fluid", "setting": "[2]; [13]", "result": 36.9, "unit": "µM"}, {"measurement": "Asn (%) of the peritoneal fluid", "setting": "[2]; [14]", "result": 85.8, "unit": "%"}, {"measurement": "Asn (μM) of the peritoneal fluid", "setting": "[2]; [14]", "result": 31.6, "unit": "µM"}, {"measurement": "Asn (%) of the peritoneal fluid", "setting": "[2]; [15]", "result": 62.3, "unit": "%"}, {"measurement": "Asn (μM) of the peritoneal fluid", "setting": "[2]; [15]", "result": 23.0, "unit": "µM"}, {"measurement": "Arg (%) of the peritoneal fluid", "setting": "[2]; [13]", "result": 100, "unit": "%"}, {"measurement": "Arg (μM) of the peritoneal fluid", "setting": "[2]; [13]", "result": 93.7, "unit": "µM"}, {"measurement": "Arg (%) of the peritoneal fluid", "setting": "[2]; [14]", "result": 93.6, "unit": "%"}, {"measurement": "Arg (μM) of the peritoneal fluid", "setting": "[2]; [14]", "result": 87.6, "unit": "µM"}, {"measurement": "Arg (%) of the peritoneal fluid", "setting": "[2]; [15]", "result": 84.8, "unit": "%"}, {"measurement": "Arg (μM) of the peritoneal fluid", "setting": "[2]; [15]", "result": 79.4, "unit": "µM"}, {"measurement": "Arg (%) of the peritoneal fluid", "setting": "[2]; [16]", "result": 71.4, "unit": "%"}, {"measurement": "Arg (μM) of the peritoneal fluid", "setting": "[2]; [16]", "result": 66.9, "unit": "µM"}, {"measurement": "Arg (%) of the peritoneal fluid", "setting": "[2]; [17]", "result": 57.9, "unit": "%"}, {"measurement": "Arg (μM) of the peritoneal fluid", "setting": "[2]; [17]", "result": 54.2, "unit": "µM"}]}]}
